# Measured values from patent US20100266591A1, “METHOD OF TREATING ERYTHROPOIETIN HYPORESPONSIVE ANEMIAS” (priority 2008, published 2010).
# Entries after “also recorded” stand apart in the source; their conditions may differ.
# T1: EPO-receptor (form in the assay not stated) (human, UniProt P19235 25-508, limits assumed)
# T1 sequence: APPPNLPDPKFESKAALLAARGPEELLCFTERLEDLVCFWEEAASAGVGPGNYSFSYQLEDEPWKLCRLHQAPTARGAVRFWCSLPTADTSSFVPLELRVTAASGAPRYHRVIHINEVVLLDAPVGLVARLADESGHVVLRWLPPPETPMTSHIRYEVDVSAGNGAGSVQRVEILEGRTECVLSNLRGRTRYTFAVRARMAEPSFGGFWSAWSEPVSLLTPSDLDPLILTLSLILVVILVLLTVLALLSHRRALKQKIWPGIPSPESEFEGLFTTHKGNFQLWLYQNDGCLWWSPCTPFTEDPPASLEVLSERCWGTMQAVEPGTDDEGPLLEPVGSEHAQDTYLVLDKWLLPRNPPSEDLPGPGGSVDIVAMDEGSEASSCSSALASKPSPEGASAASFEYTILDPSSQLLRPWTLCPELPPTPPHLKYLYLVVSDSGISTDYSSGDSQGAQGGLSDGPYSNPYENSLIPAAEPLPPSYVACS
# T2: human EPO-R displayed on UT-7 cells (human, UniProt P19235 25-508)
# T2 sequence: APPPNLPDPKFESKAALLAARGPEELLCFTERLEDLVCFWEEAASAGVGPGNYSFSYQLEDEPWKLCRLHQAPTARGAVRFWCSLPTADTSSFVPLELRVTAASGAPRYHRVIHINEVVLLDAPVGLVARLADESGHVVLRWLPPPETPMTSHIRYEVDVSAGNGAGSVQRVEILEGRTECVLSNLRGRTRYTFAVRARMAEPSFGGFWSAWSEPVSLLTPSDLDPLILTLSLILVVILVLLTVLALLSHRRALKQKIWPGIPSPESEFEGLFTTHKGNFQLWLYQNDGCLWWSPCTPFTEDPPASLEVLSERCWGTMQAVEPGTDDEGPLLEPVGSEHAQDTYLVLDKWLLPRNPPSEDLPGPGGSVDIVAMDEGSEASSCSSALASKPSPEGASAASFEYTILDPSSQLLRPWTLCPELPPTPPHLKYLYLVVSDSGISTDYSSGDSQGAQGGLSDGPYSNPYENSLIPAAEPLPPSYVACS
# B1: CNTO 530 (Fc fusion)
# chain: QIQGGTYSCHFGPLTWVCKPQGGGSCPPCPAPEAAGGPSVFLFPPKPKDTLMISRTPEVTCVVVDVSQEDPEVQFNWYVDGVEVHNAKTKPREEQFNSTYRVVSVLTVLHQDWLNGKEYKCKVSNKGLPSSIEKTISKAKGQPREPQVYTLPPSQEEMTKNQVSLTCLVKGFYPSDIAVEWESNGQPENNYKTTPPVLDSDGSFFLYSRLTVDKSRWQEGNVFSCSVMHEALHNHYTQKSLSLSLGK
# notes: EPO-mimetic peptide antibody fusion protein; Homodimer joined by disulfide bonds through cysteines in the immunoglobulin-derived portion; May or may not be glycosylated; also called Dimeric EMP1 construct: CNTO 530
# Columns and labels:
# [1] = system: UT7 cells; settings: UT-7EPO cells; cited from earlier work
# [2] = cited from earlier work
# [3] = system: normal rats; settings: single subcutaneous dose, compared to rhEPO and darbepoetin; cited from earlier work
# [4] = per mg of protein; cited from earlier work
# [5] = system: UT7 cells; assay: UT7 cell proliferation assay; assay type: cell-based, human
# Protocol: Particularly useful in identifying and calibrating compositions useful in the method of the invention is the UT7 cell proliferation assay. The UT7 is a human leukemic cell line that has been adapted to become EPO-dependant. In order to use the UT7 cell proliferation assay for selection of a composition or a dose to be administered to a subject having low blood hemoglobin content, the cells are washed free or normal culture medium and starved for EPO for 24 hours prior to assay. For example, the UT-7 cell starvation can proceed in IMDM media with added L-glutamine and FBS at 5% (I5Q). The cells are then prepared and suspended in the appropriate media to a final concentration of 6×10^5 cells/mL (yields a final concentration of 30,000 cells per 96-well chamber). An EPO standard is prepared by diluting EPO stock to 5 ng/mL followed by 1:2 serial dilutions down to a concentration of 0.0098 ng/mL in I5Q media. […] Cell proliferation is assessed using a vital stain such as Promega's MTS solution (Promega, Madison, Wis.) according to the manufacturer's instructions. The EC50 is calculated from a curve fit of concentration vs proliferation as measured by the increase in absorbance of the chromophore or other signal. […]
# Using UT-7 cells, which display EPO-R and require an ESA for proliferation, competitive binding for the human EPO-R between CNTO 530 inhibited and ^125I-EPO was measured. […]
# [6] = system: Tg197 mice; assay: Hgb response in Tg197 mice (anemia of chronic disease); assay type: in vivo, mouse
# From the text: The pharmacodynamics of epoetin-α in C57Bl/6 and Tg197 mice was first compared. Secondly, CNTO 530, epoetin-α and darbepoetin in Tg197 mice was compared.
# Materials and Methods. Nine-week old heterozygous Tg197-CBA F1 transgenic mice, age-matched C57Bl/6 mice and age-matched CBA-057Bl/6 F1 hybrid (CBF1) mice were obtained from Ace Laboratories (Boyertown, Pa.), Ace Laboratories and Jackson Laboratories (Bar Harbor, Me.), respectively. Founder Tg197 mice for the transgenic colony was obtained from G. Kollias. The breeding stock was maintained as homozygotes and received weekly injections of murine anti-human TNFa antibodies (10 mg/kg intraperitoneally) to control their arthritis. For these experiments, homozygous Tg197 males were bred to CBA females. CBF1 mice were used because their disease progresses more slowly than that seen in homozygous Tg197 mice. The mice were group housed (4 per cage) in filter-topped plastic shoebox style cages. The animals were individually identified with ear tags, placed at least a week prior to the start of the study. […] All mice were maintained in the pathogen-free vivarium at Centocor R&D, Inc., Radnor Pa. The Institutional Animal Care and Use Committee at Centocor approved all associated procedures.
# CNTO 530, recombinant human erythropoietin (epoetin-α, OrthoBiotech, Raritian N.J.), darbepoetin (Amgen, Thousand Oaks, Calif.), and PBS. Doses were expressed as mg/kg or UT-7 Units/kg (U/kg).
# To comparative the pharmacodynamics of epoetin-α in C57Bl/6 and Tg197 mice, study animals were assigned to groups as shown in Table 1. On Day 0 the mice received a weight-adjusted, subcutaneous injection of test article (freshly diluted from stock) or PBS. Mice were euthanized by CO2 asphyxiation and blood was collected for each sample. […]
# Hematology: Blood samples from mice in the model characterization and pharmacodynamic studies were collected at the times indicated in Tables 1 and 2. […] Data are expressed as group mean±standard deviation. Results: Data are expressed as the group mean and standard deviation or as group mean change from control. […]
# [7] = system: C57Bl/6 mice; assay: Hgb response in C57Bl/6 mice (Example 1); assay type: in vivo, mouse
# From the text: To comparative the pharmacodynamics of epoetin-α in C57Bl/6 and Tg197 mice, study animals were assigned to groups as shown in Table 1. On Day 0 the mice received a weight-adjusted, subcutaneous injection of test article (freshly diluted from stock) or PBS. Mice were euthanized by CO2 asphyxiation and blood was collected for each sample.
# Hematology: Blood samples from mice in the model characterization and pharmacodynamic studies were collected at the times indicated in Tables 1 and 2. Blood was collected from mice anesthetized with a CO2 mixture via open chest cardiac puncture into commercially prepared EDTA coated microtubes. Blood analyses were performed on whole blood using the ADVIA 120 blood analyzer (Bayer Diagnostics, Tarrytown, N.Y.). Data are expressed as group mean±standard deviation. Results: Data are expressed as the group mean and standard deviation or as group mean change from control. Mean values for the PBS control mice were used as the Day 1 baseline. For graphing, the nominal day may differ from the actual day of blood sampling by 1 day. Mean (±standard deviation) hematological data for 30 CBF1 and 50 Tg197 PBS control mice (9 to 13 weeks old) are shown in Table 3.
# [8] = system: W/Wv mice; assay: Hgb response in c-kit deficient (W/Wv) mice; assay type: in vivo, mouse; settings: single subcutaneous dose, 12,000 U/kg
# Protocol: Materials and Methods. Male and female WBB6F1/J-KitW/KitW-v (black eyed, white coat, affected; Related genotype ala KitW/KitW-v) (W/Wv) mice were obtained from Jackson Laboratories, Bar Harbor, Me. at 5 to 7 weeks of age. These mice are deficient in c-kit the receptor for SCF. The mice were group housed in filter topped plastic shoe-box style cages. CNTO 530 (30 UT-7 Units/ug) and epoetin-α (120 UT-7 Units/ug) were tested and PBS pH 7.4 was used as the control article. Study Design: On Day 1 mice received a weight-adjusted, subcutaneous (s.c.) dose of epoetin-α, CNTO 530 or PBS (10 mL/kg) according to Table 4. Three mice/sex were bled per group at each designated time point according to Table 4. On Days 4, 9, 14, and 28 (males) or 30 (females), mice were anesthetized with CO2 and blood samples ([…]) taken via open chest cardiac puncture for hematology. Blood was collected directly into tubes prepared with EDTA and mixed thoroughly for approximately 10 seconds and placed on a rocker to prevent coagulation. Whole blood was be analyzed using an ADVIA 120 hematology analyzer.
# Results. Data are expressed as the group mean and standard deviation or as group mean change from control. Mean values for the PBS control mice were used as the Day 1 baseline. For graphing, the nominal day may differ from the actual day of blood sampling by 1 day.
# [9] = system: ala +/+ mice; assay: Hgb response in normal ala +/+ littermates; assay type: in vivo, mouse; settings: single subcutaneous dose, 12,000 U/kg
# [10] = target: T1, EPO-receptor (form in the assay not …); assay: assay not stated
# [11] = target: T2, human EPO-R displayed on UT-7 cells; assay: cell-based or functional assay
# [12] = target: T2, human EPO-R displayed on UT-7 cells; assay: competitive binding against 125I-EPO (0.5 nM) on UT-7 cells displaying human EPO-R
# Protocol: Using UT-7 cells, which display EPO-R and require an ESA for proliferation, competitive binding for the human EPO-R between CNTO 530 inhibited and ¹²⁵I-EPO was measured.
molecule,measurement,setting,value
"CNTO 528: EPO-mimetic peptide antibody fusion protein; disulfide-linked homodimer of SEQ ID NO: 2, two EMP1 copies and portions of human IgG","fold less potent than rhEPO on a molar basis, growth stimulation",[1],approximately 10 fold
same,pharmacodynamic response,[2]; IV 0.03-0.9 mg/kg,"prolonged, dose-dependent erythropoietic responses; also recorded: dose dependent increase in RBC count; also recorded: dose-dependent increase in soluble transferrin receptor concentration; also recorded: dose-dependent increase in endogenous EPO concentration"
same,tolerability,[2]; IV 0.03-0.9 mg/kg,well tolerated
same,pharmacokinetics,[2]; IV,linear and approximately dose proportional
same,mean Hgb concentration above baseline at last measurement,[2]; approximately 2.5 months after a single dose,0.4 g/dL
same,immunogenicity,"[2]; human, in vivo",No immunogenicity was observed
same,time of maximum effect on Hgb concentration,[2]; single IV dose,22 days
same,hematology response / efficacy,[3],longer-lived reticulocytosis and a longer-lived increase in hemoglobin; also recorded: only minor changes in red cell distribution width (RDW) or mean cell volume (MCV); also recorded: no effect on mean platelet volume (MPV); also recorded: efficacious in rat models of anemia and in a rat model of pure red cell aplasia
"Human urinary EPO: isolated human urinary EPO, international reference standard for EPO assays",specific activity,[4],"about 70,000 U/mg"
"epoetin-α: recombinant human erythropoietin (OrthoBiotech), 166 amino acid sequence SEQ ID NO: 1",in vitro activity,[5],120 UT-7 Units/ug
same,EC50,"[5]; 48 hours, MTS",~18 pM
same,Hgb response (increase),"[6]; 0.3 mg/kg s.c., single dose",~1 g/dL
same,day Hgb returned to baseline,"[6]; 0.3 mg/kg s.c., single dose",≤ 8 days
same,Hgb response,"[6]; single s.c. dose, comparison at 30,000 U/kg",little dose response between 0.03 and 0.3 mg/kg
same,day Hgb returned to baseline,"[7]; 0.3 mg/kg s.c., single dose",15 days
same,increase in Hgb,"[7]; 0.3 mg/kg s.c., single dose",~1.5 g/dL
same,Hgb response,[7]; 0.03 and 0.3 mg/kg s.c.,dose-dependent increase in hemoglobin
same,increase in hemoglobin,[8],less than 1 g/dL
same,increase in Hgb,[9],approximately 2 g/dL
same,specific activity,[4],"100,000 to 200,000 U/mg"
B1,Kd,[10],~10000 pM
same,induction of UT-7 cell proliferation (EC50),[11],~55 pM
same,potency against rHuEPO in a simple proliferation assay using UT-7 cells,[11],~24 fold less potent than rHuEPO (molar)
same,rescue of EPO-deprived UT-7 cells from apoptosis (EC50),[11],~21 pM
same,IC50,[12],~60000 pM
